Measured values taken from article PMC3211034, “Optimal Production and Biochemical Properties of a Lipase from Candida albicans” (International Journal of Molecular Sciences, 2011).

Tests used:
[1] = molecular target: T1, CaLIP10 (lipase 10 from Candida albicans; product of lip10-dm) (Candida albicans, UniProt Q9P4E5); test: spectrophotometric release of p-nitrophenol at […] nm; type: biochemical; conditions: 2 mM substrate, 50 mM Tris-HCl pH 8.0, 25 °C
T1 construct: mature protein without signal peptide, cloned from genomic DNA; CTG-Ser codons 210 and 378 recoded to TCT, so the product keeps native Ser210 and Ser378 (no amino-acid change); secreted from Pichia pastoris X33 with pGAPZalphaA; about 50 kDa by SDS-PAGE
T1 sequence (Q9P4E5 17-465): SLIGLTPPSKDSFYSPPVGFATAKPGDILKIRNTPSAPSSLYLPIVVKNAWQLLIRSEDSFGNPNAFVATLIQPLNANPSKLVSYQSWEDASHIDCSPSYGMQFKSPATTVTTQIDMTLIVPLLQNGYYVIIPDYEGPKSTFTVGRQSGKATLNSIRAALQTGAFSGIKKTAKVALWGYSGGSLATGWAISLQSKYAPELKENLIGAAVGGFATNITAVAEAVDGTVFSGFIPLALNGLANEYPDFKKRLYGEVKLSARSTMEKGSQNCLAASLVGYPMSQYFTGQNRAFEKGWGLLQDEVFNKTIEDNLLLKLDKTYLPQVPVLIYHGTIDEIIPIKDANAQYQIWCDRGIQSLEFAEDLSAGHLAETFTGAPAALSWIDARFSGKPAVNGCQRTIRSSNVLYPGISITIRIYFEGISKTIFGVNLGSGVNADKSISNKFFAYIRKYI

[2] = molecular target: T1, CaLIP10 (lipase 10 from Candida albicans; product of lip10-dm); test: clear zone on tributyrin-emulsion YPD plates, secreting P. pastoris transformants; type: cell-based; conditions: 1% tributyrin emulsion; X-33 and empty-vector control

Row | Structure (SMILES) | spectrophotometric release of p-nitrophenol at 405 nm [1] | clear zone on tributyrin-emulsion YPD plates, secreting P. pastoris transformant [2]
1 | CCCCCCCC(=O)Oc1ccc([N+](=O)[O-])cc1 [p-nitrophenol caprylate] | The lipase activity was determined spectrophotometrically using p-nitrophenol caprylate as substrate. | 
2 | CCCC(=O)OCC(COC(=O)CCC)OC(=O)CCC [tributyrin] |  | a clear zone was formed around wild type lip10 and mutated lip10-dm
